The nature of the data set: molar enthalpy of vaporization or sublimation. To be noted: 298.15 K; Liquid; Static calorimetry.

Structures are written as SMILES. ± gives the expanded uncertainty stated by the source.

We go through one molecule from the NIST ThermoML archive (doi:10.1016/j.jct.2014.04.003).

With `Cc1ccc(C)n1C` [1,2,5-trimethylpyrrole], the molar enthalpy turned out to be 12.1 ± 0.311 kcal/mol.
